Earlier results as cited in US20140135284A1, “COMPOSITION OF AQUEOUS BUFFER SOLUTION FOR THE TREATMENT OF CELLULAR ENVIRONMENT AND ION CHANNELS AND METHODS FOR USING SAME” (priority 2007, published 2014).

System: inflammation
Conditions: acid species studied, small reductions in pH

SMILES | effect on inflammation
Cl [Hydrochloric acid] | upregulated inflammation
CC(O)C(=O)O (centres unmarked) [Lactic acid] | effective anti-inflammatory
